The values below are quoted from earlier work in patent publication US20230149829A1, “ORAL COMPOSITIONS OF PLANTS THROUGH A DOUBLE EXTRACTION SYSTEM AND METHODS OF MAKING THE SAME” (Nulixir Inc., priority 2021, published 2023).

Tested on in one data set: not given
Particulars: n-octanol and water; categorization assumed at pH=7 unless stated otherwise.
With (R)-kawain, the lipophilicity (log P) is given as roughly 2.7. In the case of `CC1=C(CO)C(=O)O[C@@H]([C@@H](C)[C@H]2CC[C@H]3[C@@H]4C[C@H](Cl)[C@]5(O)[C@@H](O)C=CC(=O)[C@]5(C)[C@H]4CC[C@]23C)C1` [6a-chloro-5b-hydroxywithaferin A], the log partition coefficient (log P) is listed as roughly 3.2. On to `CC(C)=CCC[C@](C)(O[C@@H]1O[C@H](CO[C@@H]2O[C@H](CO)[C@@H](O)[C@H](O)[C@H]2O)[C@@H](O)[C@H](O)[C@H]1O)[C@H]1CC[C@]2(C)[C@@H]1[C@H](O)C[C@@H]1[C@@]3(C)CC[C@H](O[C@@H]4O[C@H](CO)[C@@H](O)[C@H](O)[C@H]4O[C@@H]4O[C@H](CO)[C@@H](O)[C@H](O)[C@H]4O)C(C)(C)[C@@H]3CC[C@]12C` [ginsenoside rb1], for which the “log P” value is roughly −1. In the case of herinacine A, the log partition coefficient (log P) is listed as roughly 2.5.

Regarding `COc1ccc([C@@]23CCC(=O)C[C@@H]2N(C)CC3)cc1OC` [mesembrine], the “log P” value is listed as roughly 1.5. `CC(=O)OC1C=CC(=O)N(C(=O)CCc2ccccc2)C1` (stereo not drawn) [pipermethystine]: the “log P” value is reported as roughly 1.8.

For `CC(C)=C[C@H]1C[C@](C)(O)[C@@H]2[C@H]3CC[C@@H]4[C@@]5(C)CC[C@H](O[C@@H]6OC[C@H](O)[C@H](O[C@@H]7O[C@H](CO)[C@@H](O)[C@H](O)[C@H]7O)[C@H]6O[C@@H]6O[C@@H](CO)[C@H](O)[C@H]6O)C(C)(C)[C@@H]5CC[C@@]4(C)[C@@]34CO[C@@]2(C4)O1` [bacopaside X], the “log P” value is on record as roughly 2.2. schisandroside C: the “log P” value is given as roughly 1.6. As for bacopaside B, the “log P” value is roughly 2.8. As to `CC(C)=CCC[C@](C)(O[C@@H]1O[C@H](CO)[C@@H](O)[C@H](O)[C@H]1O)[C@H]1CC[C@]2(C)[C@@H]1[C@H](O)C[C@@H]1[C@@]3(C)CC[C@H](O)C(C)(C)[C@@H]3[C@@H](O[C@@H]3O[C@H](CO)[C@@H](O)[C@H](O)[C@H]3O)C[C@]12C` [ginsenoside rg1], the “log P” value is roughly 0.8. For `COc1ccc(C23C=CC(O)CC2N(C)CC3)cc1OC` (stereo not drawn) [mesembrenol], the “log P” value was roughly 2.4.

On to `CC(C)=C[C@H]1C[C@](C)(O)[C@H]2[C@H]3CC[C@@H]4[C@@]5(C)CC[C@H](O[C@@H]6O[C@H](CO)[C@@H](O)[C@H](O[C@@H]7O[C@H](CO)[C@@H](O)[C@H](O)[C@H]7O)[C@H]6O[C@@H]6O[C@@H](CO)[C@H](O)[C@H]6O)C(C)(C)[C@@H]5CC[C@@]4(C)[C@@]34CO[C@@]2(C4)O1` [bacoside A3], for which the “log P” value is recorded as roughly 2.1. `COc1cc2c(c(OC)c1OC)-c1c(cc(OC)c(OC)c1OC)C[C@](C)(O)[C@@H](C)C2` [(+)-schisandrin]: the “log P” value is listed as roughly 5. Regarding `COc1cc(/C=C\c2ccc(OC)c(O)c2)oc(=O)c1` [11-hydroxyyangonin], the “log P” value was roughly 2.2. For `COc1ccc([C@@]23C=CC(=O)C[C@@H]2N(C)CC3)cc1OC` [mesembrenone], the “log P” value is on record as roughly 1.3.

For `N#C[C@@]1(O[C@@H]2O[C@H](CO)[C@@H](O)[C@H](O)[C@H]2O)C=C[C@@H](O)C1` [tetraphyllin B], the “log P” value is roughly −2.5.

As to tortuosomine, the “log P” value is given as roughly 3.

As to methylliberine, the “log P” value is on record as roughly −0.083. For hericerin, the “log P” value is on record as roughly 6.4. Take `CC(C)=C[C@@H]1CO[C@]23C[C@]4(CO2)[C@H](CC[C@@H]2[C@@]5(C)CC[C@H](O[C@@H]6OC[C@H](O)[C@H](O[C@@H]7O[C@H](CO)[C@@H](O)[C@H](O)[C@H]7O)[C@H]6O[C@@H]6O[C@@H](CO)[C@H](O)[C@H]6O)C(C)(C)[C@@H]5CC[C@]24C)[C@H]3[C@@]1(C)O` [bacopasaponin C]: the log partition coefficient (log P) is listed as roughly 2. `COc1cc2c(c(OC)c1OC)-c1c(cc(OC)c(OC)c1OC)C[C@H](C)[C@H](C)C2` [(−)-schisandrin A]: the log partition coefficient (log P) is given as roughly 3.6. Turning to `COC1=CC(=O)OC(/C=C/c2ccc(OC)cc2)C1` (stereo not drawn) [5,6-dihydroyangonin], the “log P” value was roughly 2.5. As for `COc1cc([C@H]2Oc3cc(O)c4c(=O)c(O)c(-c5ccc(O)cc5)oc4c3O[C@@H]2CO)ccc1O` [rhodiolin], the “log P” value was roughly 2. For the compound `COc1cc2c(c(OC)c1OC)-c1c(cc3c(c1OC)OCO3)CC(C)C(C)C2` (single isomer, unassigned; (-)) [(−)-schisandrin B], the “log P” value is listed as roughly 4. `COC1=CC(=O)O[C@@H](CCc2ccc3c(c2)OCO3)C1` [7,8-dihydromethysticin]: the “log P” value is given as roughly 2.2. As to `COc1ccc(CCc2cc(OC)cc(=O)o2)cc1` [7,8-dihydroyangonin], the lipophilicity (log P) is reported as roughly 2.9.

The test system of the next data set is many strains of fungi.
Settings: not given
Take `O=CC=Cc1ccccc1` [Cinnamaldehyde]: the “inhibitory activity against fungi” value is recorded as “strong inhibitory activity”.
